Experimental data as given in ChEMBL document CHEMBL1149286 (J Med Chem, 2004).

Assays:
[1] = target: 5-hydroxytryptamine receptor 7 (Rattus norvegicus, UniProt P32305); test: Displacement of [3H]LSD from rat recombinant 5HT7 receptor expressed in HEK293 cells; assay type: cell-based
[2] = target: 5-hydroxytryptamine receptor 7 (Homo sapiens, UniProt P34969); test: Agonist activity at 5-carboxamidotryptamine desensitized 5HT7 receptor assessed as relaxation of substance P-induced contraction of Dunkin-Hartley guinea pig ileum; assay type: functional, tissue-based; parameters: concentration or dose not given beside the values; conditions: Cavia porcellus, target entry is the homologue from another species
[3] = target: T1, 5-hydroxytryptamine receptor 1A (Rattus norvegicus, UniProt P19327); test: Displacement of [3H]8-OH-DPAT from 5HT1A receptor in Wistar Han rat hippocampal membranes; assay type: cell membranes, Membrane
T1 sequence (P19327 whole entry): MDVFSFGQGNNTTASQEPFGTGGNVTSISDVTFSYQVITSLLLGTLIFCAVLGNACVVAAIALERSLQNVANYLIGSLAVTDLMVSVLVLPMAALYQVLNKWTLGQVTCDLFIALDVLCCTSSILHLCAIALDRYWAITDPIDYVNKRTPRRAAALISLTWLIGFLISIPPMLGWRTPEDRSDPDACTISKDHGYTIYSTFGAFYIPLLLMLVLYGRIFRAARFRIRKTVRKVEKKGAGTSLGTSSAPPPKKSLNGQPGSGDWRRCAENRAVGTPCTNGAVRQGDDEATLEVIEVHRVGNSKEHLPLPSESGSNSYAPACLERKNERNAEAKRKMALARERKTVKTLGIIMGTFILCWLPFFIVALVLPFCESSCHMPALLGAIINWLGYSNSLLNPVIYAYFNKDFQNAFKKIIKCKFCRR

[4] = target: 5-hydroxytryptamine receptor 2A (Rattus norvegicus, UniProt P14842); test: (§1) Displacement of [3H]ketanserin from 5HT2A receptor in Wistar Han rat cortex membranes; assay type: cell membranes, Membrane
[5] = target: 5-hydroxytryptamine receptor 2A (Rattus norvegicus) (UniProt P14842); test: as §1; assay type: cell membranes; conditions: Membrane
[6] = species: Rattus norvegicus; test: Selectivity for rat 5HT7 receptor over rat 5HT1A receptor
[7] = species: Rattus norvegicus; test: Selectivity for rat 5HT7 receptor over rat 5HT2A receptor

5-hydroxytryptamine receptor 7 (Homo sapiens, UniProt P34969), sequence (P34969 whole entry): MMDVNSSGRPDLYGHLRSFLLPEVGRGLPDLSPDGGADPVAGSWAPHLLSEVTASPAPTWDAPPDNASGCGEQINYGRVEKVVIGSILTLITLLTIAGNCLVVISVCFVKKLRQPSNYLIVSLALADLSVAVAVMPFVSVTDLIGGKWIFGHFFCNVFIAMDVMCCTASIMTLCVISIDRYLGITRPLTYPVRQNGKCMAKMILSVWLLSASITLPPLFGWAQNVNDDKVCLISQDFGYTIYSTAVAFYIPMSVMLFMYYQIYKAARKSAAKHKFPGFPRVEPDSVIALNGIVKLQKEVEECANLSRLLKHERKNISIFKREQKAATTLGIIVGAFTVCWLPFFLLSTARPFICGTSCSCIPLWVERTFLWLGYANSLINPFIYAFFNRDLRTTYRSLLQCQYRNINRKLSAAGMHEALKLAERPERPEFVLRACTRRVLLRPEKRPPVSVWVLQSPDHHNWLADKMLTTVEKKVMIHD
5-hydroxytryptamine receptor 7 (Rattus norvegicus, UniProt P32305), sequence (P32305 whole entry): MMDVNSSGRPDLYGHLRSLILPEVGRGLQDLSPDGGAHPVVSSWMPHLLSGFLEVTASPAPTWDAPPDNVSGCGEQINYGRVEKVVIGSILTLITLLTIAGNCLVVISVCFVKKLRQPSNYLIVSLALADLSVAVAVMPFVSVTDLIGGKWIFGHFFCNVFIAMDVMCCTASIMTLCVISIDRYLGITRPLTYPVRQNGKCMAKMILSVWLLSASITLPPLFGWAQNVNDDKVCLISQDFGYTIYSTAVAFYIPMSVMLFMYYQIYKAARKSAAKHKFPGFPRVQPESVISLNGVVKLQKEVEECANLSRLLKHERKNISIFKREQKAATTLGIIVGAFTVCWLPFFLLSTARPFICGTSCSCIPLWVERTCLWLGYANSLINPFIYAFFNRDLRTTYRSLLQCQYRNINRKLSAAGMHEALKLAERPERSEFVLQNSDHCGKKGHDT
5-hydroxytryptamine receptor 2A, sequence (P14842 whole entry): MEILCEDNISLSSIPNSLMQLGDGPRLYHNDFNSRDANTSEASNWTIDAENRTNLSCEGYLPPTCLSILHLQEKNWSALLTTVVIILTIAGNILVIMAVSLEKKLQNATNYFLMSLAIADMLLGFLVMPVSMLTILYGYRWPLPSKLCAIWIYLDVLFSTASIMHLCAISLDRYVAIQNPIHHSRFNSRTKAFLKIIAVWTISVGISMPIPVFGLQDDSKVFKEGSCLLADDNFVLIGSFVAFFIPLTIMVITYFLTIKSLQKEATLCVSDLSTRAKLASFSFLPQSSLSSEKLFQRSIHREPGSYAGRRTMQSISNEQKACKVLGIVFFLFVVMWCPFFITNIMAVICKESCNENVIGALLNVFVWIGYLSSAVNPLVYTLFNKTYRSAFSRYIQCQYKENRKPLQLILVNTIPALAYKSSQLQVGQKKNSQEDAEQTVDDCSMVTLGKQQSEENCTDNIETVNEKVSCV
5-hydroxytryptamine receptor 2A (Rattus norvegicus), sequence (P14842 whole entry): as above

SMILES | Ki [1] [nM] | Activity [2] [%] | other results
COc1ccccc1N1CCN(CC(=O)NC2CCCc3c(OC)cccc32)CC1 (centres undefined) | > 1000 |  | 
Cc1ccccc1N1CCN(CCCCCC(=O)NC2CCCc3ccccc32)CC1 (centres undefined) |  | 98 | 
NCCc1c[nH]c2ccc(C(N)=O)cc12 |  | 100 | 
COc1ccccc1N1CCN(CCCCCC(=O)NC2CCCc3ccccc32)CC1 (centres undefined) |  | 91 | 
CS(=O)(=O)c1ccccc1N1CCN(CCCCCC(=O)NC2CCCc3ccccc32)CC1 (centres undefined) |  |  | Ki [4]: > 4000 nM; Activity [5]: 38%
CC(=O)c1ccccc1N1CCN(CCCCCC(=O)NC2CCCc3ccccc32)CC1 (centres undefined) |  | 79 | 
O=C(CCCCCN1CCN(c2ccccc2O)CC1)NC1CCCc2ccccc21 (centres undefined) |  | 0 | 
NC(=O)c1ccccc1N1CCN(CCCCCC(=O)NC2CCCc3ccccc32)CC1 (centres undefined) |  |  | Ki [4]: > 4000 nM; Activity [5]: 9%
CSc1ccccc1N1CCN(CCCCCC(=O)NC2CCCc3ccccc32)CC1 (centres undefined) |  | 100 | Selectivity ratio [6]: 200; Selectivity ratio [7]: > 1000

Second part, led by results:

Ki [1] [nM] | SMILES | Activity [2] [%] | other results
125 | O=C(CCCCCN1CCN(c2noc3ccccc23)CC1)NC1CCCc2ccccc21 (centres undefined) |  | Ki [3]: 3900 nM
704 | COc1ccc2oc(N3CCN(CCCCCC(=O)NC4CCCc5ccccc54)CC3)nc2c1 (centres undefined) |  | 
820 | O=C(CCCCCN1CCN(c2nc3ccccc3o2)CC1)NC1CCCc2ccccc21 (centres undefined) |  | 
356 | O=C(CCCCCN1CCN(c2nc3ccccc3[nH]2)CC1)NC1CCCc2ccccc21 (centres undefined) |  | Ki [3]: 2600 nM
